Results as given in patent publication US11987586B1 (TAKEDA PHARMACEUTICAL COMPANY LIMITED, priority 2022, dated 2024).

Target: T1, human OX2 receptor (Homo sapiens, UniProt O43614)
T1 construct: expressed in transfected cells
T1 sequence (O43614 1-444): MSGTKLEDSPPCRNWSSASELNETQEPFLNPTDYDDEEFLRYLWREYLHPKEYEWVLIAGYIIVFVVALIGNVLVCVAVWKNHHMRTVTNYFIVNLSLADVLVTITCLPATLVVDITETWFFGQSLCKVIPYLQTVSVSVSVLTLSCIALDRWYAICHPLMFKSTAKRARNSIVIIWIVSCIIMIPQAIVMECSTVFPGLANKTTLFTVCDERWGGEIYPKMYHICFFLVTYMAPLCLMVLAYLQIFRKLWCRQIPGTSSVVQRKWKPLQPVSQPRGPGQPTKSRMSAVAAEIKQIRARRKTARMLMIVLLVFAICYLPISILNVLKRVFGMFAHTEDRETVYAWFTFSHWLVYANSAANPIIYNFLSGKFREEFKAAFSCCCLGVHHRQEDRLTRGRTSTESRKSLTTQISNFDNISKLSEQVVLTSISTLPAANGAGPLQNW
Experiment: Measurement of orexin type 2 receptor agonist activity (calcium fluorescence, Fluo-4, FDSS)
Format: cell-based
Conditions: 3 uM test compound; CHO cells expressing human OX2 receptor; DMSO = 0%, 10 nM orexin A (human) = 100%
Protocol: In order to obtain cell clones that stably express human orexin type 2 receptor, human orexin type 2 (residues 1-444, NCBI Reference Sequence: AK314279) was constructed in a pcDNA3.1 (+) vector (Invitrogen) to express in mammalian cells. This plasmid DNA was transfected into CHO-K1 cells by electroporation, and stable clones were obtained by limiting dilution using resistance to G418 as a selection marker.
CHO cells in which human OX2 receptor was forcibly expressed were seeded at 10,000 cells/well into a 384-well black transparent bottom plate (BD falcon), and were incubated at 37° C., 5% CO2 for 1 day after incubation at room temperature for 30 minutes. After removing the cell plate medium, assay buffer containing calcium indicator A (HBSS (Thermo Fisher Scientific), 20 mM HEPES (Thermo Fisher Scientific), 0.1% BSA (Sigma-Aldrich), 2.5 μg/mL Fluo-4 AM (Dojin Kagaku), 0.08% Pluronic F127 (Dojin Kagaku), 1.25 mM probenecid (Dojin Kagaku)) was added at 30 μL/well. After incubation in a 5% CO2 incubator at 37° C. for 30 minutes, it was incubated at room temperature for another 30 minutes. Add 10 μL/well of the test compound diluted with assay buffer B (HBSS, 20 mM HEPES, 0.1% BSA), and use FDSS μCELL (Hamamatsu Photonics) to measure the fluorescence value every 1 second for 1 minute, and then every 2 seconds for 1 minute. It was measured for 1 minute and 40 seconds. The amount of fluorescence value when DMSO is added instead of the test compound is defined as 0%, and the amount of fluorescence value when orexin A (human) (Peptide Institute) with a final concentration of 10 nM is added is defined as 100%. The activity (%) of the test compound was calculated.

Row | OX2R agonist activity (3 uM, %) [%] | SMILES
1 | 101 | CCS(=O)(=O)N[C@H]1Cc2cn(-c3cnc4cccc(-c5c(F)cccc5F)n34)c(=O)n2C1 [Example 37, N-{(6S)-2-[5-(2,6-difluorophenyl)imidazo[1,2-a]pyridin-3-yl]-3-oxo-2,5,6,7-tetrahydro-3H-pyrrolo[1,2-c]imidazol-6-yl}ethanesulfonamide]
2 | 111 | CS(=O)(=O)N[C@@H]1CN2C(=O)N(c3noc4ccc(F)c(-c5c(F)cccc5F)c34)C[C@@H]2C1(F)F [Example 38, N-{(6R,7aR)-2-[4-(2,6-difluorophenyl)-5-fluoro-1,2-benzoxazol-3-yl]-7,7-difluoro-3-oxohexahydro-1H-pyrrolo[1,2-c]imidazol-6-yl}methanesulfonamide]
3 | 106 | CCS(=O)(=O)N[C@@H]1Cn2c(cn(-c3noc4cc(Cl)cc(-c5c(F)cc(F)cc5F)c34)c2=O)C1(F)F [Example 39, N-{(6R)-2-[6-chloro-4-(2,4,6-trifluorophenyl)-1,2-benzoxazol-3-yl]-7,7-difluoro-3-oxo-2,5,6,7-tetrahydro-3H-pyrrolo[1,2-c]imidazol-6-yl}ethanesulfonamide]
4 | 103 | CS(=O)(=O)N[C@@H]1CN2C(=O)N(c3noc4cc(Cl)c(F)c(-c5c(F)cc(F)cc5F)c34)C[C@@H]2C1(F)F [Example 40, N-{(6R,7aR)-2-[6-chloro-5-fluoro-4-(2,4,6-trifluorophenyl)-1,2-benzoxazol-3-yl]-7,7-difluoro-3-oxohexahydro-1H-pyrrolo[1,2-c]imidazol-6-yl}methanesulfonamide]
5 | 100 | CCS(=O)(=O)N[C@H]1C[C@H]2CN(c3noc4cc(OC)cc(-c5c(F)cccc5F)c34)C(=O)N2C1 [Example 41, N-{(6S,7aS)-2-[4-(2,6-difluorophenyl)-6-methoxy-1,2-benzoxazol-3-yl]-3-oxohexahydro-1H-pyrrolo[1,2-c]imidazol-6-yl}ethanesulfonamide]
6 | 100 | O=C1N(c2noc3cccc(-c4c(F)cccc4F)c23)C[C@@H]2C[C@H](NS(=O)(=O)C(F)F)CN12 [Example 43, N-{(6S,7aS)-2-[4-(2,6-difluorophenyl)-1,2-benzoxazol-3-yl]-3-oxohexahydro-1H-pyrrolo[1,2-c]imidazol-6-yl}-1,1-difluoromethanesulfonamide]
7 | 102 | CS(=O)(=O)N[C@@H]1Cn2c(cn(-c3noc4cc(F)cc(-c5c(F)cccc5F)c34)c2=O)C1(F)F [Example 46, N-{(6R)-2-[4-(2,6-difluorophenyl)-6-fluoro-1,2-benzoxazol-3-yl]-7,7-difluoro-3-oxo-2,5,6,7-tetrahydro-3H-pyrrolo[1,2-c]imidazol-6-yl}methanesulfonamide]
8 | 91 | CS(=O)(=O)N[C@@H]1CN2C(=O)N(c3noc4ccc(F)c(-c5c(F)cc(F)cc5F)c34)C[C@@H]2C1(F)F [Example 47, N-{(6R,7aR)-7,7-Difluoro-2-[5-fluoro-4-(2,4,6-trifluorophenyl)-1,2-benzoxazol-3-yl]-3-oxohexahydro-1H-pyrrolo[1,2-c]imidazol-6-yl}methanesulfonamide]
9 | 94 | CCS(=O)(=O)N[C@H]1C[C@@H]2CN(c3noc4cccc(-c5c(F)cccc5F)c34)C(=O)N2C1 [Example 49, N-{(6S, 7aR)-2-[4-(2,6-difluorophenyl)-1,2-benzoxazol-3-yl]-3-oxohexahydro-1H-pyrrolo[1,2-c]imidazol-6-yl}ethanesulfonamide]
10 | 108 | CCS(=O)(=O)N[C@H]1C[C@H]2CN(c3nsc4cccc(-c5c(F)cccc5F)c34)C(=O)N2C1 [Example 55, N-{(6S,7aS)-2-[4-(2,6-difluorophenyl)-1,2-benzothiazol-3-yl]-3-oxohexahydro-1H-pyrrolo[1,2-c]imidazol-6-yl}ethanesulfonamide]
11 | 99 | CCS(=O)(=O)N[C@H]1C[C@H]2CN(c3noc4cc(C5CC5)cc(-c5c(F)cccc5F)c34)C(=O)N2C1 [Example 56, N-{(6S,7aS)-2-[6-cyclopropyl-4-(2,6-difluorophenyl)-1,2-benzoxazol-3-yl]-3-oxohexahydro-1H-pyrrolo[1,2-c]imidazol-6-yl}ethanesulfonamide]
12 | 88 | CCS(=O)(=O)N[C@@H]1CN2C(=O)N(c3noc4cccc(-c5c(F)cccc5F)c34)C[C@]2(C)C1 [Example 57, N-{(6S,7aS)-2-[4-(2,6-difluorophenyl)-1,2-benzoxazol-3-yl]-7a-methyl-3-oxohexahydro-1H-pyrrolo[1,2-c]imidazol-6-yl}ethanesulfonamide]
13 | 88 | CCS(=O)(=O)N[C@H]1C[C@H]2CN(c3noc4c(Cl)ccc(-c5c(F)cccc5F)c34)C(=O)N2C1 [Example 58, N-{(6S,7aS)-2-[7-chloro-4-(2,6-difluorophenyl)-1,2-benzoxazol-3-yl]-3-oxohexahydro-1H-pyrrolo[1,2-c]imidazol-6-yl}ethanesulfonamide]
14 | 99 | CCS(=O)(=O)N[C@H]1C[C@H]2CN(c3noc4cccc(-c5c(F)cc(F)cc5F)c34)C(=O)N2C1 [Example 65, N-{(6S,7aS)-3-oxo-2-[4-(2,4,6-trifluorophenyl)-1,2-benzoxazol-3-yl]hexahydro-1H-pyrrolo[1,2-c]imidazol-6-yl}ethanesulfonamide]
15 | 97 | CCS(=O)(=O)N[C@H]1C[C@H]2CN(c3noc4ccc(F)c(-c5c(F)cccc5F)c34)C(=O)N2C1 [Example 66, N-{(6S,7aS)-2-[4-(2,6-difluorophenyl)-5-fluoro-1,2-benzoxazol-3-yl]-3-oxohexahydro-1H-pyrrolo[1,2-c]imidazol-6-yl}ethanesulfonamide]
16 | 97 | CCS(=O)(=O)N[C@@H]1CN2C(=O)N(c3noc4cc(Cl)cc(-c5c(F)cccc5F)c34)C[C@@H]2C1(F)F [Example 67, N-{(6R,7aR)-2-[6-chloro-4-(2,6-difluorophenyl)-1,2-benzoxazol-3-yl]-7,7-difluoro-3-oxohexahydro-1H-pyrrolo[1,2-c]imidazol-6-yl}ethanesulfonamide]
17 | 109 | CCS(=O)(=O)N[C@@H]1Cn2c(cn(-c3noc4cc(Cl)cc(-c5c(F)cccc5F)c34)c2=O)C1(F)F [Example 68, N-{(6R)-2-[6-chloro-4-(2,6-difluorophenyl)-1,2-benzoxazol-3-yl]-7,7-difluoro-3-oxo-2,5,6,7-tetrahydro-3H-pyrrolo[1,2-c]imidazol-6-yl}ethanesulfonamide]
18 | 96 | CCS(=O)(=O)N[C@@H]1CN2C(=O)N(c3noc4cc(F)cc(-c5c(F)cccc5F)c34)C[C@@H]2C1(F)F [Example 69, N-{(6R,7aR)-2-[4-(2,6-difluorophenyl)-6-fluoro-1,2-benzoxazol-3-yl]-7,7-difluoro-3-oxohexahydro-1H-pyrrolo[1,2-c]imidazol-6-yl}ethanesulfonamide]
19 | 105 | CCS(=O)(=O)N[C@@H]1Cn2c(cn(-c3noc4cccc(-c5c(F)cccc5F)c34)c2=O)C1(C)C [Example 70, N-{(6S)-2-[4-(2,6-difluorophenyl)-1,2-benzoxazol-3-yl]-7,7-dimethyl-3-oxo-2,5,6,7-tetrahydro-3H-pyrrolo[1,2-c]imidazol-6-yl}ethanesulfonamide]
20 | 98 | CS(=O)(=O)N[C@@H]1CN2C(=O)N(c3noc4cc(F)cc(-c5c(F)cccc5F)c34)C[C@@H]2C1(F)F [Example 72, N-{(6R,7aR)-2-[4-(2,6-Difluorophenyl)-6-fluoro-1,2-benzoxazol-3-yl]-7,7-difluoro-3-oxohexahydro-1H-pyrrolo[1,2-c]imidazol-6-yl}methanesulfonamide]
21 | 105 | CS(=O)(=O)N[C@@H]1Cn2c(cn(-c3noc4cc(Cl)cc(-c5c(F)cccc5F)c34)c2=O)C1(F)F [Example 73, N-{(6R)-2-[6-chloro-4-(2,6-difluorophenyl)-1,2-benzoxazol-3-yl]-7,7-difluoro-3-oxo-2,5,6,7-tetrahydro-3H-pyrrolo[1,2-c]imidazol-6-yl}methanesulfonamide]
22 | 104 | CS(=O)(=O)N[C@@H]1Cn2c(cn(-c3noc4cc(C(F)(F)F)cc(-c5c(F)cccc5F)c34)c2=O)C1(F)F [Example 74, N-{(6R)-2-[4-(2,6-difluorophenyl)-6-(trifluoromethyl)-1,2-benzoxazol-3-yl]-7,7-difluoro-3-oxo-2,5,6,7-tetrahydro-3H-pyrrolo[1,2-c]imidazol-6-yl}methanesulfonamide]
